Values of other authors as cited in patent US20110280855A1, “VITAMIN C COMPOSITIONS” (priority 2006, published 2011).

Assays:
[1] = tested on: murine neuroblastoma as well as melanoma cell lines; conditions: in vitro; dependent on the source of tumor cells
[2] = tested on: Normal lung tissue of mice; conditions: normal lung tissue of mice upon treatment

Q: For O=C(O)CCCCC1CCSS1 (stereo not drawn) [alpha-lipoic acid], which “increase of GSH content compared to untreated controls” value [1] is on record?
A: Its value is 30-70%.

Q: And the increase in glutathione [2]?
A: The increase in glutathione was “about 50%”.
